pIC50: −log10 of the molar value.
Assays:
PD-L1 in U937 cells = test: PD-L1 levels in U937 cells by western blotting and flow cytometry; format: cell-based, human; conditions: western blotting and flow cytometry, 10 μM, 12 h
Experimental: (§1) Fig. 1 EGFR inhibitors were screened to reduce membrane PD-L1 levels. a High-throughput screening of 2125 FDA-approved drugs or drug candidates. U937 cells were incubated with IFNγ (100 ng/mL) for 48 h, treated with the drugs at 10 μM for 12 h. Ruxolitinib (Rux) was used as a positive control. The hit compounds that induced the decrease of PD-L1 levels are shown in blue. The depth of blue represents decreased level of PD-L1. The heatmap represents the targeted pathways obtained from the high-throughput screening, based upon decreased membrane PD-L1 level detected by flow cytometry. b Immunoblotting of PD-L1 in U937 cells treated with ES-072 (ES) or AZD9291 (AZD) at indicated concentrations for 12 h. ES and AZD are EGFR inhibitors. c, d Median fluorescence intensity (MFI) (c) and relative quantification (d) of PD-L1 in U937 cells treated with 10 μM ES-072 or 10 μM AZD9291 for 12 h. Data represent means ± SEM, n = 18, 6 independent repeats, ****P < 0.0001. e–g Immunoblotting (e, f) and flow cytometry (g) analysis of PD-L1 levels in U937 cells treated with 10 μM ES-072 or 10 μM AZD9291 for the indicated times. h, i Immunoblottings (h) of PD-L1 and β-TrCP, relative quantification (i) of PD-L1 MFI in H1975 cells transfected with non-targeting siRNA (si-CTRL) or β-TrCP siRNAs (si-β-TrCP) and treated with or without 10 μM ES-072/AZD9291 for 12 h. Data represent means ± SEM, n = 9, 3 independent repeats, NS: no significant; ****P < 0.0001. j–l Immunoblotting (j) and flow cytometry analysis (k) with relative quantification (l) of PD-L1 in H1975 cells treated with 10 μM ES-072 or AZD9291, and/or 5 μM LY2090314 (LY) for 12 h. LY is a GSK3 inhibitor. […]
For western blot analysis, cells were collected and washed with PBS, then lysed in radioimmunoprecipitation assay (RIPA) buffer (1% Triton X-100, 100 mM Tris-HCl pH 8.8, 100 mM NaCl, 0.5 mM EDTA). […] The supernatant was collected and the protein concentration was measured by bicinchoninic acid reaction. […] Signals were detected using chemiluminescence reagents (#4AW001-500, 4A649 Biotech, Co.). […]

PD-L1 in H1975 cells = test: PD-L1 levels in H1975 cells by immunoblotting and flow cytometry; format: cell-based, human; conditions: H1975 cells, 10 μM ES-072 for 12 h
Experimental: as §1, with “h.” for “h. LY is a GSK3 inhibitor.”
Fig. 5 GSK3α-mediated phosphorylation of PD-L1 promotes PD-L1-ARIH1 interaction and ARIH1-induced degradation. a Co-IP analysis for the interaction of K48-ubiquitin, ARIH1 (HA), and PD-L1 in HEK293T cells transfected with HA-ARIH1 and Flag-PD-L1 (WT, S279A, S283A, or 2SA), treated with MG132 (10 μM) for 6 h; HA-tagged empty vector (HA-EV) was transfected as a negative control. b Co-IP analysis for the interaction of ARIH1 and PD-L1 in HEK293T cells transfected with HA-ARIH1 and Flag-PD-L1 (WT or 2SA), treated with 10 μM ES-072 for 24 h, Flag-tagged empty vector (Flag-EV) was transfected as a negative control. c HEK293T cells were transfected with Flag-PD-L1. Co-IP analysis for the interaction of ubiquitin and PD-L1 in HEK293T cells transfected with ARIH1-siRNAs or HA-GSK3α and treated with MG132 (10 μM) for 6 h; non-targeting siRNA (si-CTRL) was transfected as a negative control. d Immunoblots of PD-L1 and ARIH1 (HA) in H1975 cells transfected with HA-ARIH1, treated with or without 5 μM LY for 6 h. e, f MFI (e) and relative quantification (f) of PD-L1 in HA-ARIH1-overexpressed H1975 cells, treated with or without 5 μM LY for 6 h. […]

GSK3α = GSK3α (Homo sapiens, UniProt P49840); test: In vitro kinase specificity profiling for GSK3α; format: biochemical
Sequence of GSK3α (P49840 whole entry): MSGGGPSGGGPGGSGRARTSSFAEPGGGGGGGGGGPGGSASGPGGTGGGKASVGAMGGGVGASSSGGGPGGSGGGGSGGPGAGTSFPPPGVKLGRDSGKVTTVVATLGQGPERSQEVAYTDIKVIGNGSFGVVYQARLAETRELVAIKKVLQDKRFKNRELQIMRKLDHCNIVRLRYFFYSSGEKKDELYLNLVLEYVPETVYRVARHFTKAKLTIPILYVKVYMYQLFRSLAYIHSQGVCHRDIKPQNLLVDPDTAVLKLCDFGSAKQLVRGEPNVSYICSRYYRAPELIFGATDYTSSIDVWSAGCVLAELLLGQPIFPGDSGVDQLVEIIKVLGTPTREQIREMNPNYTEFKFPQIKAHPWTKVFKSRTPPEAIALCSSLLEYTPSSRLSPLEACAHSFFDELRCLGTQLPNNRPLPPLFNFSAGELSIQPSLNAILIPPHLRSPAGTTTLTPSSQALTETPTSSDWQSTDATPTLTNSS

CDK4 = CDK4 (Homo sapiens, UniProt P11802); test: In vitro kinase specificity profiling; format: biochemical
Sequence of CDK4 (P11802 whole entry, species assumed): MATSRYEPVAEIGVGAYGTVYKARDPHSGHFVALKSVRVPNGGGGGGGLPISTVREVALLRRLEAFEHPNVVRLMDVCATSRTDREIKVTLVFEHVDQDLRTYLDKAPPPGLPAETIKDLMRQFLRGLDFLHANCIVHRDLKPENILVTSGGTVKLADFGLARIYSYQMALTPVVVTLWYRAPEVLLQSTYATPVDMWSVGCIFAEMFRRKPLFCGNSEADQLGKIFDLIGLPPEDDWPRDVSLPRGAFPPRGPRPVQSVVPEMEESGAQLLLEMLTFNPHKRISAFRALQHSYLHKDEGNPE
Sequence of CDK4 (P30281 whole entry partner, species assumed): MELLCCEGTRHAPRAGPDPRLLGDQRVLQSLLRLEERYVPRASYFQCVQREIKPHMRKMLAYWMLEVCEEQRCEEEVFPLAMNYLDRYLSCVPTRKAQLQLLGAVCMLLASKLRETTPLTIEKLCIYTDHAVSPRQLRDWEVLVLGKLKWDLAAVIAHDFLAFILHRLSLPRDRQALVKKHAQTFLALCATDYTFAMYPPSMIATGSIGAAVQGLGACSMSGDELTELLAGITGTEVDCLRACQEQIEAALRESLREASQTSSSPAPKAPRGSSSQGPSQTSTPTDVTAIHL

pIC50 (GSK3α; as worded in response to reviewers): < 4.40
pIC50 (GSK3α; single independent tests): < 4.40
pIC50 (CDK4): < 5.00
Compound: C=CC(=O)Nc1cccc(Nc2nc(Nc3ccc(N4CCN(C)CC4)nc3OC)ncc2C(F)(F)F)c1 [ES-072]
IFNγ-induced membranal PD-L1 levels (PD-L1 in U937 cells): dramatically reduced
PD-L1 level in whole cell lysate (WCL) and outer membrane protein (OMP) (PD-L1 in H1975 cells): decreased

Source: article PMC8058344, “ARIH1 signaling promotes anti-tumor immunity by targeting PD-L1 for proteasomal degradation” (Nature Communications, 2021)
